pIC50: −log10 of the molar value. Read-outs that look alike come from different tables or passages of the source.
Tests used:
[1] = molecular target: T1, CYP46A1 (Homo sapiens, UniProt Q9Y6A2); test: recombinant human CYP46A1 microsomes, cholesterol to 24-hydroxycholesterol, LC-MS/MS ([…] with testosterone as substrate); format: biochemical
[2] = molecular target: CYP2C8 (Homo sapiens, UniProt P10632); test: biochemical; design: CYP off-target inhibition panel
[3] = molecular target: T1, CYP46A1; test: recombinant human CYP46A1 microsomes, cholesterol to 24-hydroxycholesterol, LC-MS/MS ([…] with testosterone as substrate); format: biochemical; remark: listed apart in the source
[4] = molecular target: T2, Human M2 (Homo sapiens, UniProt P08172); test: biochemical; design: CEREP off-target binding panel, per cent inhibition at 10 uM, n = 2
T2 construct: gene CHRM2
T2 sequence (P08172 whole entry): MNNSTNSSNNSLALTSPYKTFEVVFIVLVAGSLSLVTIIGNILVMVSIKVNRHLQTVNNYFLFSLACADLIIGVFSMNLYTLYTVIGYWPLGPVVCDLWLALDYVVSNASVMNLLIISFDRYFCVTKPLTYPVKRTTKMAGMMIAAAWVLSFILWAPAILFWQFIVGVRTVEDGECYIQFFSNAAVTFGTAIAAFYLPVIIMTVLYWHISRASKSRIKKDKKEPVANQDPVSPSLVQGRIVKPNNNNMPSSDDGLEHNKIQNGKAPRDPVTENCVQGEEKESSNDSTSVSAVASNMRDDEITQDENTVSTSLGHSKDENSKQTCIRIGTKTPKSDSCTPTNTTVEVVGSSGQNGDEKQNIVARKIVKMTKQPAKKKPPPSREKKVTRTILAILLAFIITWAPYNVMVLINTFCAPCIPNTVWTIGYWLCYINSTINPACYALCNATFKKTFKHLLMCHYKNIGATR

[5] = molecular target: T3, Human β1 (Homo sapiens, UniProt P08588); test: biochemical; design: CEREP off-target binding panel, per cent inhibition at 10 uM, n = 2
T3 construct: gene ADRB1
T3 sequence (P08588 whole entry): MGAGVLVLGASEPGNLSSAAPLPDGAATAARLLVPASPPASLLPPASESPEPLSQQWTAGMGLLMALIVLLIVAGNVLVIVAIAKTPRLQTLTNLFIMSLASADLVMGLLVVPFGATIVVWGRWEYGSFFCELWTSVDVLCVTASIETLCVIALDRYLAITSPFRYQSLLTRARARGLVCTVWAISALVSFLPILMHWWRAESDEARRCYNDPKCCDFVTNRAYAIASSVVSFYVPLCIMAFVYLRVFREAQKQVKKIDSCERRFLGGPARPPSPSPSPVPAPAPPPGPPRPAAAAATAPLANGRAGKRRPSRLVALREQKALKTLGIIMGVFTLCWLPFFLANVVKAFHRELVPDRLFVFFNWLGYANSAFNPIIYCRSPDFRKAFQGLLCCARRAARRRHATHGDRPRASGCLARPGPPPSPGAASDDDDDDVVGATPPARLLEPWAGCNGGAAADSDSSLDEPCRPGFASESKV

[6] = molecular target: T4, Human 5-HT2A (Homo sapiens, UniProt P28223); test: biochemical; design: CEREP off-target binding panel, per cent inhibition at 10 uM, n = 2
T4 construct: gene HTR2A
T4 sequence (P28223 whole entry): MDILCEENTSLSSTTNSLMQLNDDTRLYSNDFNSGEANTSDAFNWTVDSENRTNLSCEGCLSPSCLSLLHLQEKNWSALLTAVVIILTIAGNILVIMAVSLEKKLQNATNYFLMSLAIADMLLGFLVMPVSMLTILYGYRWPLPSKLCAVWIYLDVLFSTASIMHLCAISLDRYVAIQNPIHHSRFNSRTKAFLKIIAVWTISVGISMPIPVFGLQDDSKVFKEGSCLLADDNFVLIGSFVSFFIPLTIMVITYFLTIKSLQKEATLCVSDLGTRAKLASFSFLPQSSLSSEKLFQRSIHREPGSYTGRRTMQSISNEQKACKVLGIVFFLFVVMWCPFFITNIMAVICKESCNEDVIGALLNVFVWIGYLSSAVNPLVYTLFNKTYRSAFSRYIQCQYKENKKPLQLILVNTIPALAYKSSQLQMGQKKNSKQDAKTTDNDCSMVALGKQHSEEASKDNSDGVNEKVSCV

Sequence of CYP2C8 (P10632 whole entry): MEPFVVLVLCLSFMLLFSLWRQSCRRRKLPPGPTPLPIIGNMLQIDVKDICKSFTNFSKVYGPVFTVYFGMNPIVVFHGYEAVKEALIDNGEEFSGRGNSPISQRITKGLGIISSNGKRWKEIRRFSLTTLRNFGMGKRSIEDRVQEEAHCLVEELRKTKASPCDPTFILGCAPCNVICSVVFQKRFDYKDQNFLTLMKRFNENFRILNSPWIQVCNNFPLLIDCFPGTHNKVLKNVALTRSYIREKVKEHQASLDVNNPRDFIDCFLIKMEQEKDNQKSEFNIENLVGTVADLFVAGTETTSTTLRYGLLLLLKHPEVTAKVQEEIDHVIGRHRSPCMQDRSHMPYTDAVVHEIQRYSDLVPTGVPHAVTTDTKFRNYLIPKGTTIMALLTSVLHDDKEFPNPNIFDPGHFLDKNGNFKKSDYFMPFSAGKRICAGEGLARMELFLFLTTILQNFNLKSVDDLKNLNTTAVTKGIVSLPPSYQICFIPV
T1 sequence (Q9Y6A2 whole entry): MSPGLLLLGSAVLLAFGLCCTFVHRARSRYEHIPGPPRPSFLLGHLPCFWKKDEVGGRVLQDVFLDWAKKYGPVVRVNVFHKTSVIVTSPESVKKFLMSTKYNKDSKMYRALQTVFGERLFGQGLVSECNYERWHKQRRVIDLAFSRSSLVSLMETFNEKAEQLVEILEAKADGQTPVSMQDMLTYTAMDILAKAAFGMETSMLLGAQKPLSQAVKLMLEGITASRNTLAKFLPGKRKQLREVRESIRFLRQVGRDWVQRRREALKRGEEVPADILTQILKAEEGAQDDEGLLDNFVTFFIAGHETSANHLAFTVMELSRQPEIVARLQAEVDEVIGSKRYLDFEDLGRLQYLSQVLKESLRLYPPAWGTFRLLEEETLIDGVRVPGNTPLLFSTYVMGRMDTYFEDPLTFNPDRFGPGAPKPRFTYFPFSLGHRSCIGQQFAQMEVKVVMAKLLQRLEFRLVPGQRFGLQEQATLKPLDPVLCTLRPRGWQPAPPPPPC

O=C(c1cnc2c(-c3cnco3)cc(C(F)(F)F)cn12)N1C2CCC1COC2 [compound 1, (3-oxa-8-azabicyclo[3.2.1]octan-8-yl)(8-(oxazol-5-yl)-6-(trifluoromethyl)imidazo[1,2-a]pyridin-3-yl)methanone]
pIC50 [1]: 7.66
pIC50 [2]: < 4.30

O=C(c1cccnc1-c1ccncn1)N1CCC(O)(Cc2ccc(F)cc2)CC1 [compound 2, (4-(4-fluorobenzyl)-4-hydroxypiperidin-1-yl)(2-(pyrimidin-4-yl)pyridin-3-yl)methanone]
pIC50 [3]: 7.49
inhibition at 10 µM [4]: 12.3%
inhibition at 10 µM [5]: -0.7%
pIC50 ([2]; read-out: compound 2): < 4.30
inhibition at 10 µM [6]: -5%

Source: paper PMC7658267, “Effects of CYP46A1 Inhibition on Long-Term-Depression in Hippocampal Slices ex vivo and 24S-Hydroxycholesterol Levels in Mice in vivo” (Frontiers in Molecular Neuroscience, 2020)
